In patent US11945812B2, “Annulated 2-amino-3-cyano thiophenes and derivatives for the treatment of cancer” (Boehringer Ingelheim International GmbH, priority 2020, dated 2024):

Legend:
[1] = Plasma protein binding (equilibrium dialysis), mouse plasma; format: in vitro ADME; details: read-out: PPB mouse fu
Protocol: (§1) Plasma Protein Binding (PPB)
(§2) Binding of test compound to plasma was determined using equilibrium dialysis (ED) and quantitative mass spectrometry interfaced with liquid chromatography (LC-MS). In brief, ED was performed with dialysis devices consisting of two chambers separated by a semipermeable membrane with a molecular weight cut-off of 5-10 kg/mol. One chamber was filled with commercially sourced plasma (mouse and human plasma, respectively) or serum (10% FCS in PBS) containing 1-10 μmol/L test compound and the other chamber was filled with phosphate-buffer saline (PBS) with or without dextran. The dialysis chamber was incubated for 3-5 hours at 37° C. After incubation, protein was precipitated from aliquots of each chamber and the concentration of test compound in the supernatant of the plasma-containing compartment (cplasma) and of the buffer-containing compartment (Cbuffer) was determined by LC-MS. The fraction of unbound test compound (not bound to plasma) (fu) was calculated according to the following equation: […]

SW837 cells = assay: SW837 CTG proliferation assay (CRC); format: cell-based; details: Homo sapiens; SW837 CTG proliferation; read-out: IC50 SW837
Protocol: SW837 CTG Proliferation Assay (CRC)
SW837 cells (ATCC #CCL-235) were grown in cell culture flasks (175 cm^2) using L-15 10% FCS, 1% L-Glu, 1×NEAA and 1×Na-Pyrovat. Cultures were incubated at 37° C. and 0% CO2 in a humidified atmosphere, with medium change or subcultivation 2-3 times a week. Materials used for the assay were CulturPlate-384, White Opaque 384-well Microplate, Sterile and Tissue Culture Treated (Perkin Elmer #6007680), Leibovitz L15 Medium and FBS # SH30071.03 (HyClone).
The proliferation assays started (day1) with seeding cells in flat bottom 384 well microtiter plates in 90 μL L-15 10% FCS, 1% L-Glu, 1×NEAA and 1× Na-Pyrovat at a density of 500 cells/well. Any other luminescence compatible plate format is possible. On day 2, 10 μL dilutions of the test compounds covering a concentration range between app. 0, 1 and 10.000 nM were added to the cells. Cells were incubated for 5 days in a humidified, CO2 controlled (no CO2) incubator at 37° C. On day 7 100 μL of Cell Titer Glow reagent (Cell titer Glo Luminescent Cat. No. G7571, Promega) were added to each well and incubated for additional 10 min at room temperature (with agitation). Luminescence was measured on a Wallac Victor using standard luminescence read out. IC50 values were calculated using standard Levenburg Marquard algorithms (GraphPad Prism).

[2] = target: T1, KRAS G12C::SOS1 protein-protein interaction (Homo sapiens, UniProt P01116, C118S/C51S/C80L/G12C); assay: KRAS::SOS1 AlphaScreen binding assay; details: KRAS G12C::SOS1 AlphaScreen
T1 construct: His6 (N); host or cells: E. coli
Source text: KRAS::SOS1 AlphaScreen Binding Assay
Reagents: • GST-tagged SOS1 (564_1049_GST_TEV_ECO) produced in-house • GST-TEV-SOS1 (564-1049) is purchased from Viva Biotech Ltd. • The expression construct of KRAS G12C (amino acids 1-169 of reference sequence P01116-2 (uniprot), with additional mutations: C51S, C80L, and C118S) containing a C-terminal avi-tag was obtained by gene synthesis (GeneArt, Thermo Fisher) in donor vector (pDONR-221) and transferred by recombinant cloning into pDEST17 vector bearing an N-terminal His6-tag. The protein was expressed in E. coli and the purified protein was biotinylated with the E. coli biotin ligase (BirA) before usage. • GDP (Sigma Cat No G7127) • AlphaLISA Glutathione Acceptor Beads (PerkinElmer, Cat No AL109) • AlphaScreen Streptavidin Donor Beads (PerkinElmer Cat No 6760002) • Assay plates: Proxiplate-384 PLUS, white (PerkinElmer, Cat No 6008289)
Assay Buffer: • 1×PBS • 0.1% BSA • 0.05% Tween 20
7.5 nM (final assay concentration) KRAS G12C, 10 μM (final assay concentration) GDP and 5 nM (final assay concentration) GST-SOS1 are mixed in assay buffer prior to use and kept at room temperature.
AlphaLISA Glutathione Acceptor Beads and AlphaScreen Streptavidin Donor Beads are mixed in assay buffer at a concentration of 10 μg/mL (final assay concentration) each prior to use and kept at room temperature.
Compounds are diluted to a final start concentration of 100 μM and are tested in duplicate. Assay-ready plates (ARPs) are generated using an Access Labcyte Workstation with a Labcyte Echo 550 or 555 accoustic dispenser. For compound a start concentration of 100 μM, 150 nL of compound solution is transferred per well in 11 concentrations in duplicate with serial 1:5 dilutions.
The assay is run using a fully automated robotic system in a darkened room below 100 Lux. 10 μL of KRAS::SOS1 GDP mix is added into columns 1-24 to the 150 nL of compound solution (final dilution in the assay 1:100, final DMSO concentration 1%).
After 30 minutes incubation time 5 μL of bead mix is added into columns 1-23. Plates are kept at room temperature in a darkened incubator. After further 60 minutes incubation, the signal is measured using a PerkinElmer Envision HTS Multilabel Reader using the AlphaScreen specifications from PerkinElmer. Each plate contains the following controls: • diluted DMSO+KRAS::SOS1 GDP mix+bead mix • diluted DMSO+KRAS::SOS1 GDP mix
IC50 values are calculated and analyzed using a 4 parametric logistic model.
Tables of example compounds disclosed herein contain IC50 values determined using the above assay.

NCI-H358 cells = assay: NCI-H358 CTG proliferation assay (120 h) (NSCLC); format: cell-based; details: Homo sapiens, read-out: IC50 NCl-H358
Protocol: NCI-H358 CTG Proliferation Assay (120 h) (NSCLC)
NCI-H358 cells (ATCC No. CRL-5807) were dispensed into white bottom opaque 96 well plates (Perkin Elmer cat no. 5680) at a density of 2000 cells per well in 100 μL RPMI-1640 ATCC-Formulation (Gibco # A10491)+10% FCS. Cells were incubated overnight at 37° C. in a humidified tissue culture incubator at 5% CO2. Compounds (10 mM stock in DMSO) were added at logarithmic dose series using the HP Digital Dispenser D300 (Tecan), normalizing for added DMSO. For the TO time point measurement, untreated cells were analyzed at the time of compound addition. Plates were incubated for 120 hours, and cell viability was measured using CellTiter-Glo luminescent cell viability reagent (Promega product code G7570). Viability (stated as percent of control) is defined as relative luminescence units RLU of each well divided by the RLU of cells in DMSO controls. IC50 values were determined from viability measurements by non-linear regression using a four parameter model.

[3] = Plasma protein binding (equilibrium dialysis), serum 10% FCS in PBS; format: in vitro ADME; details: bovine, 10% FCS in PBS (serum), read-out: PPB 10% FCS fu
Protocol: as §1, §2

T1 sequence (P01116 1-169 isoform P01116-2 G12C/C51S/C80L/C118S): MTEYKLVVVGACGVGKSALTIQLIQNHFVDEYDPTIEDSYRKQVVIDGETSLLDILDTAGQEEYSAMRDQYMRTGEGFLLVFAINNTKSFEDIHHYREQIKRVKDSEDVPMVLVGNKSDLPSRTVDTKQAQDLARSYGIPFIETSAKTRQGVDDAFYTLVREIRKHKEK

Structure (SMILES) | fraction unbound [1] | IC50 (SW837 cells) [nM] | IC50 [2] [nM] | IC50 (NCI-H358 cells) [nM] | fraction unbound [3]
C=C(F)C(=O)N1CCN(c2cc(O[C@@H](C)[C@@H]3CCCN3C)nc(-c3cc([C@@]4(C)CCCc5sc(N)c(C#N)c54)on3)n2)[C@H](C)C1 [Ib-10] | 0.005 | 14.9 | 13 | 40.6 | 0.063
C=CC(=O)N1CCN(c2cc(O[C@@H](C)[C@@H]3CCCN3C)nc(-c3cc([C@@]4(C)CCCc5sc(N)c(C#N)c54)on3)n2)CC12CC2 [Ib-5] | 0.004 | 15.8 | 3 | 9.68 | 0.058
C=CC(=O)N1[C@@H](C)CN(c2cc(O[C@@H](C)[C@@H]3CCCN3C)nc(-c3cc([C@@]4(C)CCCc5sc(N)c(C#N)c54)sn3)n2)C[C@@H]1C [Id-4] | 0.005 | 0.68 | 1.7 | 1.09 | 0.371
C=C(F)C(=O)N1[C@@H](C)CN(c2cc(O[C@@H](C)[C@@H]3CCCN3C)nc(-c3cc([C@@]4(C)CCCc5sc(N)c(C#N)c54)on3)n2)C[C@@H]1C [Ib-11] | 0.003 | 5.63 | 15 | 34.6 | 0.045
C=CC(=O)N1CCN(c2cc(O[C@@H](C)[C@@H]3CCCN3C)nc(-c3cc([C@@]4(C)CCCc5sc(N)c(C#N)c54)sn3)n2)CC12CC2 [Id-5] | 0.003 | 0.8 | 1.7 | 5.98 | 0.338
C=CC(=O)N1[C@H](C)CN(c2cc(O[C@@H](C)[C@@H]3CCCN3C)nc(-c3cc([C@@]4(C)CCCc5sc(N)c(C#N)c54)no3)n2)C[C@@H]1C [Ic-5] | 0.003 | 7.15 | 5 | 15.7 | 0.148
C=CC(=O)N1CCC(Oc2cc(O[C@@H](C)[C@@H]3CCCN3C)nc(-c3cc([C@@]4(C)CCCc5sc(N)c(C#N)c54)sn3)n2)CC1 [Id-6] | 0.003 | 0.35 | 1.6 | 0.93 | 0.521
C=CC(=O)N1[C@H](C)CN(c2cc(O[C@@H](C)[C@@H]3CCCN3C)nc(-c3cc([C@@]4(C)CCCc5sc(N)c(C#N)c54)sn3)n2)C[C@@H]1C [Id-2] | 0.003 | 1.09 | 1.6 | 2.57 | 0.434
C=CC(=O)N1CCN(c2cc(O[C@@H](C)[C@@H]3CCCN3C)nc(-c3cc(C4(C)CCCc5sc(N)c(C#N)c54)on3)n2)CC1 (some centres unmarked) [Ib-6] | 0.014 | < 1 | 3 | 1.67 | 0.167
COC/C=C/C(=O)N1CCN(c2cc(O[C@@H](C)[C@@H]3CCCN3C)nc(-c3cc(C4(C)CCCc5sc(N)c(C#N)c54)no3)n2)CC1 (some centres unmarked) [Ic-9] | 0.008 | 124 | 29 | 169 | 0.259
C=CC(=O)N1CCN(c2cc(O[C@@H](C)[C@@H]3CCCN3C)nc(-c3cc([C@@]4(C)CCCc5sc(N)c(C#N)c54)sn3)n2)CC1 [Id-1] | 0.021 | 0.2 | 1.6 | 0.44 | 0.476
C=CC(=O)N1[C@@H](C)CN(c2cc(O[C@@H](C)[C@@H]3CCCN3C)nc(-c3cc([C@@]4(C)CCCc5sc(N)c(C#N)c54)on3)n2)C[C@@H]1C [Ib-4] | 0.007 | 0.69 | 1.6 | 0.55 | 0.055
C=CC(=O)N1[C@@H](C)CN(c2cc(O[C@@H](C)[C@@H]3CCCN3C)nc(-c3cc([C@@]4(C)CCCc5sc(N)c(C#N)c54)no3)n2)C[C@@H]1C [Ic-4] | 0.011 | 1.62 | 1.9 | 2.49 | 0.083
C=CC(=O)N1CCN(c2cc(O[C@@H](C)[C@@H]3CCCN3C)nc(-c3cc([C@@]4(C)CCCc5sc(N)c(C#N)c54)on3)n2)[C@H](C)C1 [Ib-1] | 0.011 | 0.67 | 1.6 | 1.87 | 0.075
C=CC(=O)N1CCC(Oc2cc(N3CCN(C)C[C@@H]3C)nc(-c3cc(C4(C)CCCc5sc(N)c(C#N)c54)no3)n2)CC1 (some centres unmarked) [Ic-7] | 0.001 | 44.7 | 44 | 76.8 | 0.252
C=CC(=O)N1CCN(c2cc(O[C@@H](C)[C@@H]3CCCN3C)nc(-c3cc([C@@]4(C)CCCc5sc(N)c(C#N)c54)no3)n2)CC12CC2 [Ic-3] |  | 10.6 | 3 | 24.3 | 0.109
C=C(F)C(=O)N1[C@@H](C)CN(c2cc(O[C@@H](C)[C@@H]3CCCN3C)nc(-c3cc([C@@]4(C)CCCc5sc(N)c(C#N)c54)no3)n2)C[C@@H]1C [Ic-8] | 0.003 | 36.6 | 41 | 93.5 | 0.078
COC/C=C/C(=O)N1CCN(c2cc(O[C@@H](C)[C@@H]3CCCN3C)nc(-c3cc([C@@]4(C)CCCc5sc(N)c(C#N)c54)on3)n2)[C@H](C)C1 [Ib-14] | 0.01 | 11.3 | 6 | 19.1 | 0.066
